{
  "source": "patent US8163791B2",
  "about": "“Imidazole derivatives that induce apoptosis and their therapeutic uses” (Industry-Academic Cooperation Foundation, Yonsei University, priority 2007, dated 2012)",
  "key": {"[1]": {"tested_on": "ΔF508-CFTR in CFPAC-1 cells", "test": "Detection of ΔF508-CFTR expression on the cell membrane (immunostaining without permeabilization)", "assay_type": "cell-based, human", "conditions": "100 nM, 24 h", "protocol": "FIG. 4. Intracellular trafficking of misfolded ΔF508-CFTR by Apoptozole 1. (A) Capan-1 cells expressing normal CFTR display intense fluorescence in a characteristic ring structure that is indicative of cell membrane labeling. (B) CFPAC-1 cells expressing ΔF508-CFTR show little or no fluorescent signal at the cell surface, due to degradation ΔF508-CFTR by interacting with Hsc70 in the proteosome pathway. […] Immunostaining for CFTR is carried out using standard methods without cell permeabilization to allow CFTR detection on the cell surface.\nThe other embodiment of the present invention provides translocation methods of mutant CFTR (cystic fibrosis transmembrane conductance regulator) to treat cystic fibrosis. Hsc70 assists the degradation of misfolded proteins in the ER (Nature 1996, 381, 571-579 Cell 1998, 92, 351-366 Science 1999, 286, 1888-1893). Cystic fibrosis is a disease caused by removal of mutant CFTR in the ER. The most common mutation of CFTR is the deletion of phenylalanine-508 in CFRT (ΔF508-CFRT). […] When Capan-1 cells are immunostained with anti-CFTR antibody, intense fluorescence is observed in the cell membrane. […]\nCapan-1 and CFPAC-1 cells are grown on Permanox slides (Fisher Scientific) for 24 h and treated with 1 mM 4-PBA and 100 nM Az for 24 h. […] The slides were analyzed using a fluorescence microscope (Nikon Eclipse TE2000)."}, "Jurkat human lymphocytes [2]": {"tested_on": "Jurkat human lymphocytes", "test": "Suppression of TNF-α-induced uropod formation in lymphocytes", "assay_type": "cell-based", "conditions": "FIG. 3 legend; TNF-α 10 ng/mL", "protocol": "(§1) FIG. 3. Suppression of TNF-α and PHA-induced human lymphocyte activation by Apoptozole 1. (A) Jurkat human lymphocytes are treated with various concentrations of Apoptozole 1 for 1 h and then are activated by incubation with 10 ng/mL of TNF-α for 1 h to induce uropod formation. The formed uropod is determined by microscopic analysis of groups of cells. (B) Lymphocytes treated with TNF-α (10 ng/mL) for 48 h are incubated with various concentrations of Apoptozole 1 for 24 h. Cell number is measured by CyQuant kit. (C) Jurkat human lymphocytes are incubated with various concentrations of Apoptozole 1 for 1 h and then with 10 μg/mL PHA for 1 h to induce cell aggregation. Cell aggregates are counted in 40× fields of view determined randomly.\n(§2) Lymphocyte activation leads to the formation of a uropod in the rear pole during cell polarization and cell proliferation. Jurkat lymphocytes are incubated with various concentrations of Apoptozoles for 1 h and the treated cells are then activated by treatment with TNF-α for 1 h. Apoptozoles reduce the uropod formation induced by TNF-α by 45% in comparison with cells treated only with TNF-α. […]\nJurkat human lymphocytes are seeded in 6-well plates at a density of 10^3 cells/mL in 5% FBS in order to reduce the propensity for spontaneous uropod formation. […] The formed uropod is determined by microscopic analysis of groups of cells."}, "Jurkat human lymphocytes [3]": {"tested_on": "Jurkat human lymphocytes", "test": "Suppression of PHA-induced homotypic aggregation in lymphocytes", "assay_type": "cell-based", "conditions": "FIG. 3 legend; PHA 10 μg/mL", "protocol": "as §1, §2\nFor homotypic aggregation studies, lymphocytes are seeded in 6-well plates at a density of 2×10^4 cells/mL and treated with various concentrations (0-100 nM) of Az for 1 h. […] Cell aggregates are counted in 40× fields of view determined randomly."}},
  "data": [
    {"compound": "COc1ccc(-c2nc(-c3cc(C(F)(F)F)cc(C(F)(F)F)c3)n(Cc3ccc(C(N)=O)cc3)c2-c2ccc(OC)cc2)cc1", "note": "[Apoptozole 1, 4-2-[3,5-bis(trifluoromethyl)phenyl]-4,5-bis(4-methoxphenyl)imidazol-1-yl-methyl-benzamide]", "values": [
      {"measurement": "expression of ΔF508-CFTR on the cell membrane", "setting": "[1]", "value": "inhibits Hsc70-mediated degradation of the ΔF508-CFTR"},
      {"measurement": "TNF-α-induced human lymphocyte activation", "setting": "Jurkat human lymphocytes [2]", "value": "Suppression"},
      {"measurement": "PHA-induced human lymphocyte activation", "setting": "Jurkat human lymphocytes [3]", "value": "Suppression"}
    ]}
  ]
}
